Data reported in ChEMBL document CHEMBL6114934, “Guaiacol-chalcone and nitroguaiacol-chalcone derivatives: In vitro and in silico antibacterial evaluation” (2025).
Converted amounts (≈) assume the structure as drawn. The source made the active and inactive calls. The calls are words filed in the database; no cut-off is given here.

Columns and labels:
[1] = tested on: Staphylococcus aureus; assay: Antibacterial activity against Staphylococcus aureus at 256 ug/ml by broth microdilution method; type: functional, organism-based; conditions: dose 256.0 µg/ml
[2] = tested on: Staphylococcus aureus; assay: Antibacterial activity against methicillin-resistant Staphylococcus aureus by broth microdilution method; type: functional
[3] = tested on: Staphylococcus aureus; assay: Antibacterial activity against Staphylococcus aureus by broth microdilution method; type: functional
[4] = tested on: Klebsiella aerogenes; assay: Antibacterial activity against Klebsiella aerogenes at 256 ug/ml by broth microdilution method; type: functional, organism-based; conditions: dose 256.0 µg/ml
[5] = tested on: Pseudomonas aeruginosa; assay: Antibacterial activity against Pseudomonas aeruginosa at 256 ug/ml by broth microdilution method; type: functional, organism-based; conditions: dose 256.0 µg/ml
[6] = tested on: Acinetobacter baumannii; assay: Antibacterial activity against Acinetobacter baumannii at 256 ug/ml by broth microdilution method; type: functional, organism-based; conditions: dose 256.0 µg/ml
[7] = tested on: Klebsiella pneumoniae; assay: Antibacterial activity against Klebsiella pneumoniae at 256 ug/ml by broth microdilution method; type: functional, organism-based; conditions: dose 256.0 µg/ml
[8] = tested on: Staphylococcus aureus; assay: Antibacterial activity against Staphylococcus aureus; type: functional
[9] = tested on: Staphylococcus aureus; assay: Antibacterial activity against methicillin-resistant Staphylococcus aureus; type: functional

Row | Compound | Activity [1] | MIC [2] [µg/mL] | MIC [3] [µg/mL] | Activity [4] | Activity [5] | Activity [6] | Activity [7] | MIC [8] [µg/mL] | MIC [9] [µg/mL]
1 | COc1cc(C(=O)/C=C/c2ccc(F)cc2)cc([N+](=O)[O-])c1O | Active | 64 (≈ 202 µM) | 64 (≈ 202 µM) | inactive | inactive | inactive | inactive | – | –
2 | COc1cc(C(=O)/C=C/c2cccc(Cl)c2)cc([N+](=O)[O-])c1O | Active | 64 (≈ 192 µM) | 16 (≈ 47.9 µM) | inactive | inactive | inactive | inactive | – | –
3 | COc1cc(C(=O)/C=C/c2ccc(Cl)cc2)ccc1O | inactive | – | – | inactive | inactive | inactive | inactive | – | –
4 | COc1cc(C(=O)/C=C/c2ccc(Cl)c(Cl)c2)ccc1O | inactive | – | – | inactive | inactive | inactive | inactive | – | –
5 | COc1cc(C(=O)/C=C/c2cccc(C(F)(F)F)c2)ccc1O | inactive | – | – | inactive | inactive | inactive | inactive | – | –
6 | O=C(/C=C/c1ccc(Cl)c(Cl)c1)c1cc(O)c(O)c([N+](=O)[O-])c1 | – | – | – | – | – | – | – | 1 (≈ 2.82 µM) | 16 (≈ 45.2 µM)
7 | COc1cc(C(=O)/C=C/c2cccc(F)c2)ccc1O | inactive | – | – | inactive | inactive | inactive | inactive | – | –
8 | COc1cc(C(=O)/C=C/c2ccc(F)cc2)ccc1O | inactive | – | – | inactive | inactive | inactive | inactive | – | –
9 | COc1cc(C(=O)/C=C/c2ccc(Cl)c(Cl)c2)cc([N+](=O)[O-])c1O | Active | 8 (≈ 21.7 µM) | 8 (≈ 21.7 µM) | inactive | inactive | inactive | inactive | – | –
10 | CCOc1ccc(/C=C/C(=O)c2ccc(O)c(OC)c2)cc1 | Active | 32 (≈ 107 µM) | 16 (≈ 53.6 µM) | inactive | inactive | inactive | inactive | – | –
11 | COc1cc(C(=O)/C=C/c2cccc(Cl)c2)ccc1O | inactive | – | – | inactive | inactive | inactive | inactive | – | –
12 | COc1cc(C(=O)/C=C/c2ccc(SC)cc2)ccc1O | inactive | – | – | inactive | inactive | inactive | inactive | – | –
13 | COc1cc(C(=O)/C=C/c2ccc(SC)cc2)cc([N+](=O)[O-])c1O | Active | > 256 | 128 (≈ 371 µM) | inactive | inactive | inactive | inactive | – | –
14 | COc1cc(C(=O)/C=C/c2cccc(F)c2)cc([N+](=O)[O-])c1O | Active | 64 (≈ 202 µM) | 32 (≈ 101 µM) | inactive | inactive | inactive | inactive | – | –
15 | COc1cc(C(=O)/C=C/c2ccc(Cl)cc2Cl)cc([N+](=O)[O-])c1O | Active | 256 (≈ 695 µM) | 256 (≈ 695 µM) | inactive | inactive | inactive | inactive | – | –
16 | CC(=O)N1N=C(c2cc(O)c(O)c([N+](=O)[O-])c2)CC1c1ccc(Cl)cc1 (centres undefined) | – | – | – | – | – | – | – | 0.5 (≈ 1.33 µM) | 32 (≈ 85.2 µM)
17 | COc1cc(C(=O)/C=C/c2ccc(Cl)cc2Cl)ccc1O | inactive | – | – | inactive | inactive | inactive | inactive | – | –
18 | COc1cc(C(=O)/C=C/c2ccc([N+](=O)[O-])cc2)cc([N+](=O)[O-])c1O | Active | 64 (≈ 186 µM) | 32 (≈ 92.9 µM) | inactive | inactive | inactive | inactive | – | –
19 | COc1cc(C(=O)/C=C/c2ccc(Cl)cc2)cc([N+](=O)[O-])c1O | Active | 32 (≈ 95.9 µM) | 16 (≈ 47.9 µM) | inactive | inactive | inactive | inactive | – | –
20 | COc1cc(C(=O)/C=C/c2ccc(Br)cc2F)ccc1O | inactive | – | – | inactive | inactive | inactive | inactive | – | –
21 | COc1cc(C(=O)/C=C/c2cccc(C(F)(F)F)c2)cc([N+](=O)[O-])c1O | Active | 64 (≈ 174 µM) | 32 (≈ 87.1 µM) | inactive | inactive | inactive | inactive | – | –
